# Assay results as given in publication PMC8967206, “Pyrimidine-5-carbonitrile based potential anticancer agents as apoptosis inducers through PI3K/AKT axis inhibition in leukaemia K562” (Journal of Enzyme Inhibition and Medicinal Chemistry, 2022).
# Where two headings read alike, the source gives them in different places.
# Experiments:
# [1] = tested on: breast cancer (MCF-7) cell line; assay: MTT colorimetric cytotoxicity assay, MCF-7; assay type: cell-based; conditions: Homo sapiens, MCF7, 48 h incubation, mean ± SD of three experiments
# Protocol: (§2) Cytotoxicity of our sixteen innovative compounds 4(a–e), 5(a–d), 6, and 7(a–f) together with control was assessed by means of in-vitro toxicology assay kit, MTT based (Sigma Aldrich, St. Louis, MO) against MCF-7 and K562 cell lines incubated in 96 microwell plates and proceeded as reported[32]^,[33]. MTT (3-[4,5-dimethylthiazol-2-yl]-2,5-diphenyl tetrazolium bromide) method measures the activity of living cells through mitochondrial dehydrogenase. Mitochondrial dehydrogenases of viable cells cleave the tetrazolium ring, giving purple formazan crystals that are dissolved in acidified isopropanol and the resulting purple solution is measured spectrophotometrically. The change in cell number is proportional to the intensity of purple colour produced and the degree of cytotoxicity caused by the test compounds. The absorbance at a wavelength of 570 nm was measured using (ROBONIK P2000 spectrophotometer) and the background absorbance of multi-well plates at 690 nm then the absorbance at 690 nm was subtracted from the 570 nm measurement. Five concentrations from each test compound ranging from (0.04 to 100 µM) were prepared and the experiments were done in triplicate.
# [2] = tested on: leukaemia (K562) cell line; assay: MTT colorimetric cytotoxicity assay, K562; assay type: cell-based; conditions: Homo sapiens, 48 h incubation, mean ± SD of three experiments
# Protocol: as §2
# AKT-1 = AKT-1 (Homo sapiens, UniProt P31749); assay: AKT enzyme inhibition assay (ELISA, cell lysates); assay type: biochemical; conditions: mean ± SD of three experiments
# Sequence of AKT-1 (P31749 whole entry): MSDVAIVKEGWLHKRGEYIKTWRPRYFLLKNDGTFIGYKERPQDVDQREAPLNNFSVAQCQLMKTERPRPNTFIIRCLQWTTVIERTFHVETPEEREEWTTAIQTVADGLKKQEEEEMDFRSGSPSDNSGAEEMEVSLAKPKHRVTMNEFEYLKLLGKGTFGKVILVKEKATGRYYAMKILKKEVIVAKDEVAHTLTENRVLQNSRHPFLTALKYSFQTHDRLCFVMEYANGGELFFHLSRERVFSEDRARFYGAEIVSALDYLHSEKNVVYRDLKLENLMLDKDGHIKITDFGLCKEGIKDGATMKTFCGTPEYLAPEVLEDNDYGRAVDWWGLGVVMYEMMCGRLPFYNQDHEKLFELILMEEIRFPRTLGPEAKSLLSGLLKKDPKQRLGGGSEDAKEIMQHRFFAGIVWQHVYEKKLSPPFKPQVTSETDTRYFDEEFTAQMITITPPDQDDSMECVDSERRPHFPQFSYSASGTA
# Protocol: In brief, cell lysates were collected after treatment with the tested compounds using lysis buffer and centrifuged at 13,000 rpm for 15 min to obtain the cytosolic fraction. Samples were soaked with the kinase diluted buffer and the reaction was initiated by adding 10 µl of diluted ATP to each well, except blanks. Plate was incubated at 30 °C for up to 90 min covered with an adhesive plate sealer with gentle, shaking every 20 min. The reaction was stopped by emptying contents of each well. Of 40 µl of the phospho-specific substrate antibody was added except blank then incubated incubate at room temperature for 60 min, with shaking every 20 min. The liquid was aspirated and the wells washed three times with 1X washing buffer. After the last wash, liquid was aspirated and 40 µl of the diluted Anti-Rabbit IgG: HRP conjugate was added except blank, and incubated at room temperature for 30 min with shaking every 10 min. Plate was washed as described before. Of 60 µl of the TMB Substrate was added to each well and incubated at room temperature for 30–60 min. The reaction was stopped by adding 20 µl of the stop solution to each well. Absorbance was measured at 450 nm. Four concentrations from the tested compounds were prepared ranged from 0.1 to 100 µM and the assay was done in triplicates. […] LY2780301 compound was used as the positive control.
# PI3Kγ = biological target: T1, PI3Kγ (Homo sapiens, UniProt P48736); assay: PI3K enzyme inhibition assay (ADP-Glo), PI3Kγ; assay type: biochemical; conditions: mean ± SD of three experiments
# T1 construct: purchased BPS Bioscience, San Diego, CA
# T1 sequence (P48736 whole entry): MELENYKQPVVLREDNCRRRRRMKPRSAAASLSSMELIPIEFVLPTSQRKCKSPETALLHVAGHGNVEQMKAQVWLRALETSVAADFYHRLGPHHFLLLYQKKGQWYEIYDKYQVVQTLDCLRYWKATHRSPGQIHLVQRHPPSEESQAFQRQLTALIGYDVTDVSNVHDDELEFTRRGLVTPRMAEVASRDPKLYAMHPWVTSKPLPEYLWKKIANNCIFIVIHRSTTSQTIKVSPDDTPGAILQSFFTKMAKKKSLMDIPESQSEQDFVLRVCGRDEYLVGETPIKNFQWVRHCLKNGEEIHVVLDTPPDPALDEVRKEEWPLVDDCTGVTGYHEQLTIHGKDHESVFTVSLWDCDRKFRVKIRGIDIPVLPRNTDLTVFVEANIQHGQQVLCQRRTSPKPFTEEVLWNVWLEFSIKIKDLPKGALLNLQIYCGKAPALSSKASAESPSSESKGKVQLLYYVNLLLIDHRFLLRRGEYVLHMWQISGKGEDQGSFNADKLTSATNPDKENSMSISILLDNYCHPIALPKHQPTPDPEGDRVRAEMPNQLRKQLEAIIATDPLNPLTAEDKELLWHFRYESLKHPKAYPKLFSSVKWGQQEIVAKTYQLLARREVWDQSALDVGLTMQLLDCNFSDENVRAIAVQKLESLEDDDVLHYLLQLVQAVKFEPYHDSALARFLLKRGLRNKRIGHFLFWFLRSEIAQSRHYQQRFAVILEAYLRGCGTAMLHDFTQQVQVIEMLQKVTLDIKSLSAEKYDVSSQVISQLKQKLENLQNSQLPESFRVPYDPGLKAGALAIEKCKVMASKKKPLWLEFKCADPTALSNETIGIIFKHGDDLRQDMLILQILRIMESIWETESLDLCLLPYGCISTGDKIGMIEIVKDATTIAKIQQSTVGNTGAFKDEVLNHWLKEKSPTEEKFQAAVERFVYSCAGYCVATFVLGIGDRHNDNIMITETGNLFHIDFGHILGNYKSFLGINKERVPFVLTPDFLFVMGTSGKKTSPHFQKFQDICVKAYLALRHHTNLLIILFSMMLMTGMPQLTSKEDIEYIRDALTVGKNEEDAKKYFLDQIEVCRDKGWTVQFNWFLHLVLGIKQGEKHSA
# Protocol: (§3) The inhibition activities of 4d and 7f against PI3K enzyme were detected using PI3K assay kits and ADP-Glo kinase assay as a detection buffer (BPS Bioscience, San Diego, CA). According to the manufacturer’s instructions, PI3K enzyme was diluted with 2.5x Kinase assay buffer to obtain 4 ng/µl. The assay was performed in 96 well plates as follows: 5 µl of PIP2 substrate was added to each well followed by 5 ul from each inhibitor except for the positive control and blanks where the inhibitor buffers were added instead. Of 5 ul of 12.5 µM ATP was added. The reactions were initiated by adding 10 µl of diluted PI3K enzyme to the positive control and inhibitors wells. Plate was carefully shaked and was incubated at 30 °C for 40 min. After the 40 min incubation, 25 µl of ADP-Glo reagent were added to each well. The plate was covered with aluminium foil and incubated at room temperature for another 45 min. Of 50 µl of Kinase Detection reagent was added to each well. Plate was covered with aluminium foil and incubated at room temperature for extra 30 min. Luminescence was measured using microplate reader. Four concentrations from the two tested compounds ranged from (0.1 to 100 µM) were prepared and the experiment was repeated in triplicate. […] IC50 values were calculated using dose-response curves and linear regression equation.
# p-PI3K = assay: Western blot, p-PI3K expression in K562; assay type: cell-based; conditions: K562, 48 h; control 0.639
# Protocol: (§1) K562 cells were treated with the most promising compound (7f), for 48 h. Protein from control and treated cells was harvested and the concentration was measured via Bradford protein assay (Bio-Rad, Hercules, CA). The samples were loaded and separated by sodium dodecyl sulphate (SDS)-polyacrylamide gel electrophoresis and then transferred onto a polyvinylidene difluoride (PVDF) membrane. Western blot analysis was performed according to previously described.
# K562 cells [3] = assay: Annexin-V-FITC apoptosis assay; assay type: cell-based; conditions: K562, 48 h
# Protocol: Apoptosis induction was assayed by staining K562 cells with Annexin-V (fluorescein isothiocyanate) and the counterstaining PI using the Annexin-V-FITC/PI apoptosis detection kit (BD Biosciences, San Diego, CA) according to the manufacturer’s instructions. Cells were exposed to the tested compound for 48 h. After that, the cells were collected by trypsinisation and 0.5 × 10^6 cells and washed twice with phosphate-buffered saline (PBS) followed by staining with 5 µl Annexin-V-FITC and 5 µl PI in 1 × binding buffer for 15 min at room temperature in the dark. FACS Calibre flow cytometer (BD Biosciences, San Diego, CA)[26]^,[36]^,[37] was used for analyses.
# Data of the current research highlighted that treating Leukaemia K562 cells for 48 h with the compound 7f caused an increase in the percentage of Annexin-V positive apoptotic cells both in the early and late stage which represents a total significant 17-fold increase compared to the control.
# PI3K = assay: Western blot, PI3K expression in K562; assay type: cell-based; conditions: K562, 48 h; control 0.881
# Protocol: as §1
# [4] = In-vivo acute toxicity study; conditions: rat, 2 g/kg, female rats, po, observed 14 d, read-out: median lethal dose (LD50)
# Protocol: Five female rats (180–200 g) were used in this test. The animals were fasted for 24 h prior to administration of the test compound. The compound was administered in a dose of 2 g/kg body weight, po . Animals are observed individually and the mortalities were recorded at least once during the first 30 min after dosing, periodically during the first 24 h and daily afterwards, for a total of 14 d[40]. All animals received humane care and experimental procedures were carried out in strict accordance with the health and care guidelines for experimental animals. All experimental operations performed on rats were approved by the Animal Experiment Ethics Committee of Heliopolis University (Approval number HU.REC.A0.23-2021).
# The toxicological profile of the most promising synthesised anticancer compound 7f was evaluated in female rats using the reported method in OECD guidelines. […]
# K562 cells [5] = assay: Cell cycle analysis (PI flow cytometry); assay type: cell-based
# Protocol: Cell cycle analysis was determined by propidium iodide (PI) flow cytometry kit/BD. K562 cells were treated by compound 7f at its IC50 concentration. Then cells were washed in PBS, fixed in cold 70% ethanol for 30 min, washed twice in PBS, and centrifuged to remove supernatant, after that, cells were treated with 0.1 mg/ml ribonuclease, stained with 0.05 mg/ml PI. The results were analysed by flow cytometry using FACS calibre and cell cycle distribution were calculated and accomplished as reported[26]^,[34]^,[35].
# As reported in the literature, inhibition of PI3K/AKT pathway affects the cell survival and proliferation[8]^,[9]. Thus, to investigate the effect of compound 7f in PI3K/Akt dual inhibition on cell cycle progression, cell cycle analysis was performed by flowcytometric analysis as reported[34]^,[35] on K562 cells treated with compound 7f. The outcomes presented in Table 4 indicated the interference with the cell cycle distribution, following 7f treatment, where there was a marked increase in the cells in pre-G1 phase by nearly 17-fold as compared to the control.
# [6] = Cytotoxicity on normal fibroblast cell line; assay type: cell-based; conditions: human, WI-38 normal fibroblast cells; non-tumorigenic cell line
# [7] = tested on: normal fibroblast cell line (WI-38); assay: Cytotoxicity on normal fibroblast cell line; assay type: cell-based; conditions: WI-38 versus K562
# NFkb = assay: Western blot, NFkb expression in K562; assay type: cell-based; conditions: K562, 48 h; control 0.719
# Protocol: as §1
# AKT = assay: Western blot, AKT expression in K562; assay type: cell-based; conditions: K562, 48 h; control 0.744
# Protocol: as §1
# Cyclin D1 = assay: Western blot, Cyclin D1 expression in K562; assay type: cell-based; conditions: K562, 48 h; control 0.849
# Protocol: as §1
# p-AKT = assay: Western blot, p-AKT expression in K562; assay type: cell-based; conditions: K562, 48 h; control 0.692
# Protocol: as §1
# PI3Kδ = biological target: T2, PI3Kδ (Homo sapiens, UniProt O00329); assay: PI3K enzyme inhibition assay (ADP-Glo), PI3Kδ; assay type: biochemical; conditions: mean ± SD of three experiments
# T2 construct: purchased BPS Bioscience, San Diego, CA
# T2 sequence (O00329 whole entry): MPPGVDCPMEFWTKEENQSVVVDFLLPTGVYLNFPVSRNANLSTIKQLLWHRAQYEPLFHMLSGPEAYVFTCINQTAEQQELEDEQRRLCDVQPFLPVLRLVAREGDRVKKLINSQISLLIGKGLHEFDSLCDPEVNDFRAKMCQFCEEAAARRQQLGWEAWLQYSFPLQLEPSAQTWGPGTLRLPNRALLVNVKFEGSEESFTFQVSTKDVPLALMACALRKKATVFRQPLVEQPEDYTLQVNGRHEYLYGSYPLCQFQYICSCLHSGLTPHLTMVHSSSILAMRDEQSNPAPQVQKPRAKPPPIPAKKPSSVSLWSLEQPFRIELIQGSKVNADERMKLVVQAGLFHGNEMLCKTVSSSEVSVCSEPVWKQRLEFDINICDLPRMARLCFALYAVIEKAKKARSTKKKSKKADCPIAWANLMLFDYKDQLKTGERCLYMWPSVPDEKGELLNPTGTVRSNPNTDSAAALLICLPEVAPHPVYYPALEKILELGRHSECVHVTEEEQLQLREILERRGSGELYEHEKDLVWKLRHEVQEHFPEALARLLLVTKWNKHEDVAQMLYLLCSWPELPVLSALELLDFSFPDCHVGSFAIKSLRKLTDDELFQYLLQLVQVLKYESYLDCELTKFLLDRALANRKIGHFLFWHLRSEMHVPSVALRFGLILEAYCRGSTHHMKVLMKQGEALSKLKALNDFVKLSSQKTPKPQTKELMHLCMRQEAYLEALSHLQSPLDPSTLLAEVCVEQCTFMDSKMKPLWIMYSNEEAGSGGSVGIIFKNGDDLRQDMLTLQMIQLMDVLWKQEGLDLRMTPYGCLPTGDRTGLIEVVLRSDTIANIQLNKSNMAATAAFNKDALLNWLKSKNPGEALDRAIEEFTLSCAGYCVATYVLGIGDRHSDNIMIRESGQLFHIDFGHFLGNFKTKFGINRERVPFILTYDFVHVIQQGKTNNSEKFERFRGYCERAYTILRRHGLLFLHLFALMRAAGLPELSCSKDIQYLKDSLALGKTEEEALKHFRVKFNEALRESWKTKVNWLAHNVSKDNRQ
# T2 sequence (P27986 whole entry partner): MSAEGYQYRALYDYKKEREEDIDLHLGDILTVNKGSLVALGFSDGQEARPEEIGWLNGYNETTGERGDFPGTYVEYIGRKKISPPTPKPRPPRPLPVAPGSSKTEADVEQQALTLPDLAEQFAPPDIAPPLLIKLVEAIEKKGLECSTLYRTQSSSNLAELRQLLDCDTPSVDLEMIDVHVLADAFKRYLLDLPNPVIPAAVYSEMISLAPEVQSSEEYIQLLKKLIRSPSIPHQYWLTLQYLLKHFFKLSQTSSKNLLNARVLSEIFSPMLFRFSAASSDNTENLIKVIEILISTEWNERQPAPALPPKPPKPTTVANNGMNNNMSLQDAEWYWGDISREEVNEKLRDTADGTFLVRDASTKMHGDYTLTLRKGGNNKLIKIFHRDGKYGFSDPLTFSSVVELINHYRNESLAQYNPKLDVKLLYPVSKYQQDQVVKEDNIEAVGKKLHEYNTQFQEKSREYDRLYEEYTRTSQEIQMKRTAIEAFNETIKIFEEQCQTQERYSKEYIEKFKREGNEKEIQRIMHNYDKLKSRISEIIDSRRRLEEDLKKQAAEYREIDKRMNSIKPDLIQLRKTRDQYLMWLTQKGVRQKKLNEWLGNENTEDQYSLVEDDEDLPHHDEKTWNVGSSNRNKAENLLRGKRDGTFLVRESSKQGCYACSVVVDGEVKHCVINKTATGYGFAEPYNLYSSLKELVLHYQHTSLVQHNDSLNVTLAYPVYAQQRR
# Protocol: as §3
# [8] = design: method as in PMID 32659486; conditions: printed in Figure 4, target not given; cited from earlier work
# [9] = K562, treated at IC50 concentration
smiles,measurement,setting,value
COc1ccc(-c2nc(SC)nc(Nc3ccc(Cl)cc3)c2C#N)cc1 [5c],IC50,[1],46.9 ± 2.55 µM
same,IC50,[2],5.82 ± 0.28 µM
"COc1ccc(-c2nc(SC)nc(NN=Cc3ccc(C)cc3)c2C#N)cc1 [7a, 4–(4-Methoxyphenyl)-6-(2-(4-methylbenzylidene)hydrazineyl)-2-(methylthio)pyrimidine-5-carbonitrile]",melting point,,246 to 248 °C
same,IC50,[1],30.5 ± 1.66 µM
same,IC50,[2],22.8 ± 1.08 µM
CN(C)CCn1cc(-c2ccc(F)c(C(F)(F)F)c2)nc1C1CCN(c2ncnc3c2CC(=O)N3)CC1 [LY2780301],IC50,AKT-1,4.62 ± 0.24 µM
"COc1ccc(-c2nc(SC)nc(NN=Cc3ccc([N+](=O)[O-])cc3)c2C#N)cc1 [7e, 4–(4-Methoxyphenyl)-2-(methylthio)-6-(2-(4-nitrobenzylidene)hydrazineyl)pyrimidine-5-carbonitrile]",melting point,,248 to 250 °C
same,IC50,[1],7.11 ± 0.39 µM
same,IC50,[2],5.36 ± 0.25 µM
"COc1ccc(-c2nc(SC)nc(Nc3ccc(C)cc3)c2C#N)cc1 [5a, 4-(4-Methoxyphenyl)-2-(methylthio)-6-(p-tolylamino)pyrimidine-5-carbonitrile]",melting point,,270 to 272 °C
same,IC50,[1],21.3 ± 1.16 µM
same,IC50,[2],26.3 ± 1.25 µM
"COc1ccc(-c2nc(SC)nc(N3CCNCC3)c2C#N)cc1 [4a, 4-(4-Methoxyphenyl)-2-(methylthio)-6-(piperazin-1-yl)pyrimidine-5-carbonitrile]",IC50,[1],2.54 ± 0.14 µM
same,IC50,[2],7.97 ± 0.38 µM
"COc1ccc(-c2nc(SC)nc(NN=Cc3ccc(Br)cc3)c2C#N)cc1 [7d, 4-(2-(4-Bromobenzylidene)hydrazineyl)-6-(4-methoxyphenyl)-2-(methylthio)pyrimidine-5-carbonitrile]",melting point,,246 to 248 °C
same,IC50,[1],56 ± 3.05 µM
same,IC50,[2],44.3 ± 2.1 µM
"COc1ccc(C=NNc2nc(SC)nc(-c3ccc(OC)cc3)c2C#N)cc1 [7b, 4-(2-(4-Methoxybenzylidene)hydrazineyl)-6-(4-methoxyphenyl)-2-(methylthio)pyrimidine-5-carbonitrile]",melting point,,244 to 246 °C
same,IC50,[1],22.9 ± 1.24 µM
same,IC50,[2],16.8 ± 0.8 µM
"COc1ccc(-c2nc(SC)nc(NN=Cc3cc(OC)c(OC)c(OC)c3)c2C#N)cc1 [7f, 4-(4-Methoxyphenyl)-2-(methylthio)-6-(2-(3,4,5-trimethoxybenzylidene)hydrazineyl)pyrimidine-5-carbonitrile]",IC50,PI3Kγ,6.99 ± 0.36 µM
same,Western blot [OD] p-PI3K,p-PI3K,0.281 OD
same,Apoptosis% Early,K562 cells [3],3.19%
same,Apoptosis% Late,K562 cells [3],19.04%
same,Apoptosis% Total,K562 cells [3],31.72%
same,Necrosis,K562 cells [3],9.49%
same,Total increase of Annexin-V positive apoptotic cells compared to the control,K562 cells [3],17 fold
same,Western blot [OD] PI3K,PI3K,0.219 OD
same,IC50,[1],3.22 ± 0.18 µM
same,LD50 at 14 d,[4],> 2000 mg/kg
same,IC50,[2],2.62 ± 0.12 µM
same,"Cell cycle analysis, Comment",K562 cells [5]; K562,Cell growth arrest at S phase
same,Increase in S-phase compared to the control,K562 cells [5]; K562,~1.3 fold
same,Increase in cells in pre-G1 phase compared to the control,K562 cells [5]; K562,~17 fold
same,DNA content % %G0-G1,K562 cells [5]; [9],44.97%
same,DNA content % %Pre-G1,K562 cells [5]; [9],31.72%
same,IC50,[6],34.8 ± 2.11 µM
same,SI (selectivity index),[7],13.29
same,Western blot [OD] NFkb,NFkb,0.402 OD
same,Western blot [OD] AKT,AKT,0.402 OD
same,Western blot [OD] Cyclin D1,Cyclin D1,0.383 OD
same,Western blot [OD] p-AKT,p-AKT,0.316 OD
same,IC50,PI3Kδ,4.01 ± 0.55 µM
COc1ccc(-c2nc(N/N=C/c3c[nH]c4ccccc34)nc(N3CCOCC3)c2C#N)cc1 [VIII],IC50,[8],10.9 µM
"COc1ccc(-c2nc(SC)nc(NN)c2C#N)cc1 [compound 6, 4-Hydrazineyl-6-(4-methoxyphenyl)-2-(methylthio)pyrimidine-5-carbonitrile]",melting point,,270 to 272 °C
same,IC50,[1],3.49 ± 0.19 µM
same,IC50,[2],6.67 ± 0.32 µM
"COc1ccc(-c2nc(SC)nc(Nc3ccc(Br)cc3)c2C#N)cc1 [5d, 4-((4-Bromophenyl)amino)-6-(4-methoxyphenyl)-2-(methylthio)pyrimidine-5-carbonitrile]",IC50,[1],15.7 ± 0.85 µM
same,IC50,[2],5.52 ± 0.26 µM
"O=c1cc(N2CCOCC2)oc2c(-c3ccccc3)cccc12 [LY294002, reference compound]",IC50,PI3Kδ,13.4 ± 0.67 µM
"COc1ccc(-c2nc(SC)nc(N3CCN(c4ccccc4OC)CC3)c2C#N)cc1 [4e, 4-(4-Methoxyphenyl)-6-(4-(2-methoxyphenyl)piperazin-1-yl)-2-(methylthio)pyrimidine-5-carbonitrile]",melting point,,170 to 172 °C
same,IC50,[1],15.6 ± 0.85 µM
same,IC50,[2],34.8 ± 1.65 µM
"COc1ccc(-c2nc(SC)nc(N3CCN(C)CC3)c2C#N)cc1 [4b, 4-(4-Methoxyphenyl)-6-(4-methylpiperazin-1-yl)-2-(methylthio)pyrimidine-5-carbonitrile]",IC50,[1],56.3 ± 3.06 µM
same,IC50,[2],93.6 ± 4.44 µM
"COc1ccc(Nc2nc(SC)nc(-c3ccc(OC)cc3)c2C#N)cc1 [5b, 4-(4-Methoxyphenyl)-6-((4-methoxyphenyl)amino)-2-(methylthio)pyrimidine-5-carbonitrile]",melting point,,238 to 240 °C
same,IC50,[1],125 ± 6.82 µM
same,IC50,[2],46.3 ± 2.2 µM
"COc1ccc(-c2nc(SC)nc(NN=Cc3ccc(Cl)cc3)c2C#N)cc1 [7c, 4-(2-(4-Chlorobenzylidene)hydrazineyl)-6-(4-methoxyphenyl)-2-(methylthio)pyrimidine-5-carbonitrile]",melting point,,266 to 268 °C
same,IC50,[1],7.42 ± 0.4 µM
same,IC50,[2],3.76 ± 0.18 µM
"COc1ccc(-c2nc(SC)nc(N3CCN(c4ccccc4)CC3)c2C#N)cc1 [4c, 4-(4-Methoxyphenyl)-2-(methylthio)-6-(4-phenylpiperazin-1-yl)pyrimidine-5-carbonitrile]",IC50,[1],6.64 ± 0.36 µM
same,IC50,[2],3.86 ± 0.18 µM
"COc1ccc(-c2nc(SC)nc(N3CCN(c4ccccc4F)CC3)c2C#N)cc1 [4d, 4-(4-(2-Fluorophenyl)piperazin-1-yl)-6-(4-methoxyphenyl)-2-(methylthio)pyrimidine-5-carbonitrile]",IC50,PI3Kγ,35.1 ± 1.82 µM
same,melting point,,142 to 144 °C
same,IC50,[1],0.8 ± 0.25 µM
same,IC50,[2],1.06 ± 0.05 µM
same,IC50,[6],116 ± 7.03 µM
same,SI (selectivity index),[7],109.72
same,IC50,PI3Kδ,23.9 ± 1.2 µM
